In PMC9312238, “Novel Organoselenium Redox Modulators with Potential Anticancer, Antimicrobial, and Antioxidant Activities” (Antioxidants, 2022):
Like-named read-outs stand apart in the source and are kept apart here.

Columns and labels:
Escherichia coli = assay: Agar diffusion assay, E. coli; type: cell-based; set-up: E. coli A% (activity index): concentration or dose not given beside the values; conditions: for zone of inhibition at 20 µM: Escherichia coli, read-out: E. coli IZD (mm); for E. coli A% (activity index): zone of test compound / zone of standard (ampicillin) x 100
Staphylococcus aureus = assay: Agar diffusion assay, S. aureus; type: cell-based; set-up: S. aureus A% (activity index): concentration or dose not given beside the values; conditions: for zone of inhibition at 20 µM: Staphylococcus aureus, read-out: S. aureus IZD (mm); for S. aureus A% (activity index): zone of test compound / zone of standard (ampicillin) x 100
Protocol: (§1) The antimicrobial activities of the OSe compounds were evaluated against C. albicans yeast, as well as E. coli and S. bacteria, employing the agar well diffusion assay. Furthermore, the MICs (in µM) were determined by the microdilution method according to the reported protocol. More details are in the Supporting Information.
(§2) Compounds were evaluated for their antimicrobial activity against the Gram-negative bacteria Escherichia coli (E. coli) and the Gram-positive bacteria Staphylococcus aureus (S. aureus), as well as the Candida albicans (C. albicans) fungal strain, using the agar diffusion assay. Ampicillin and clotrimazole were used as standards. Indeed, the antimicrobial properties of the OSe compounds were also obtained from the activity index percentage (A%) according to Equation (2). (2) A%=Zone of inhibition by test compound diametre/Zone of inhibition by standard diametre×100 . […]
(§3) 1.1.1. The antimicrobial activity
The antimicrobial activities of the OSe compounds were evaluated against C. albicans yeast as well as E. coli gram-negative and S. aureus gram-positive bacteria employing the agar well diffusion assay. Briefly, a concentration of 1 mM was prepared for each compound by dissolving in DMSO. Paper discs of standard size […] were steri-lized in an autoclave and soaked in 20 µL of the test compounds, and placed in the Petri dishes, which in turn contain a nutrient media (agar 20 g, peptone 5 g, and beef extract 3 g) seeded with the dedicated strain. Incubation lasted for 24 h at 36
(§4) Furthermore, the MICs (in µM) were determined by the microdilution method according to the reported protocol. […]
(§5) Inhibition%= (Ablank-Asample)/(Ablank)*100. (1)

MCF-7 cells = assay: cells; type: cell-based, human; conditions: for IC50: Homo sapiens
Protocol: (§6) Cells were obtained from the ATCC Company (VACSERA), Cairo, Egypt. MTT assay were performed according to the literature method. More details are in the Supporting Information.
(§7) Recently, OSe compounds gained much attention as possible drug candidates due to their various pharmacological properties. […] Therefore, the anticancer attributes of the newly prepared OSe compounds were estimated using the MTT assay against MCF-7 and HepG2 and compared with their respective cytotoxicity in WI-38 primary cells. The anthracycline drug doxorubicin was used as the standard. […] Moreover, the therapeutic index (TI) was also calculated (according to Equation (1)), which is considered a measure of the selectivity and safety of the synthesized compounds. (1) TI=IC50 for the normal WI38 cells/IC50 for the cancer cells […]
(§8) 1.1. The biological assays
(§9) 1.1.1. The anticancer activity
(§10) The breast adenocarcinoma (MCF-7), Hepatocellular carcinoma (HEPG-2), and nor-mal fibroblast (WI-38) cells were obtained from ATCC via Holding company for biological products and vaccines (VACSERA), Cairo, Egypt.
(§11) DMSO, and fetal bovine serum was obtained from Sigma Aldrich. Dulbecco’s modified Eagle’s medium was used as the culture medium for the cells, and the cytotoxicity was evaluated using the reported MTT assay. Doxorubicin was used as the positive reference, and the IC50 values were obtained from the corresponding dose-response curve.
(§12) This colorimetric assay is based on converting the yellow tetrazolium bromide (MTT) to a purple formazan derivative by mitochondrial succinate dehydrogenase in viable cells. […]
(§13) added were 100 units/ml penicillin and 100µg/ml streptomycin at 37 C in a 5% Co2 incu-bator. The cell lines were seeded in a 96-well plate at a density of 1.0x10^4 cells/well. at 37 C for 48 h under 5% Co2. After incubation, the cells were treated with different concentra-tions of compounds and incubated for 24 h. After 24 h of drug treatment, 20 µl of MTT solution at 5mg/ml was added and incubated for 4 h. Finally, dimethyl sulfoxide (DMSO) in the volume of 100 µl is added to each well to dissolve the purple formazan formed. The colorimetric assay is measured and recorded at an absorbance of 570 nm using a plate […]
(§14) The percentage of the relative cell viability was calculated as (A570 of treated samples/A570 of the untreated sample) X 100. […]

WI-38 cells = assay: cells; type: cell-based, human; conditions: Homo sapiens
Protocol: as §6, §7, §8, §9, §10, §11, §12, §13, §14

HepG2 cells = assay: cells; type: cell-based, human; conditions: Homo sapiens
Protocol: as §6
Recently, OSe compounds gained much attention as possible drug candidates due to their various pharmacological properties. Our group has reported several OSe candidates with potential anticancer, antimicrobial, and antioxidant activities. Therefore, the anticancer attributes of the newly prepared OSe compounds were estimated using the MTT assay against MCF-7 and HepG2 and compared with their respective cytotoxicity in WI-38 primary cells. The anthracycline drug doxorubicin was used as the standard. The minimal inhibition concentration required to kill 50% of the cells (IC50) was calculated from dose-response curves presented in Table 1. Moreover, the therapeutic index (TI) was also calculated (according to Equation (1)), which is considered a measure of the selectivity and safety of the synthesized compounds. (1) TI=IC50 for the normal WI38 cells/IC50 for the cancer cells […]
as §8, §9
The breast adenocarcinoma (MCF-7), Hepatocellular carcinoma (HEPG-2), and nor-mal fibroblast (WI-38) cells were obtained from ATCC via Holding company for biological products and vaccines (VACSERA), Cairo, Egypt. The reagents RPMI-1640 medium, MTT, DMSO, and fetal bovine serum was obtained from Sigma Aldrich. Dulbecco’s modified Eagle’s medium was used as the culture medium for the cells, and the cytotoxicity was evaluated using the reported MTT assay. Doxorubicin was used as the positive reference, and the IC50 values were obtained from the corresponding dose-response curve.
This colorimetric assay is based on converting the yellow tetrazolium bromide (MTT) to a purple formazan derivative by mitochondrial succinate dehydrogenase in viable cells.
Cell lines were cultured in RPMI-1640 medium with 10% fetal bovine serum. Antibiotics added were 100 units/ml penicillin and 100µg/ml streptomycin at 37 C in a 5% Co2 incu-bator. The cell lines were seeded in a 96-well plate at a density of 1.0x10^4 cells/well. at 37 C for 48 h under 5% Co2. After incubation, the cells were treated with different concentra-tions of compounds and incubated for 24 h. After 24 h of drug treatment, 20 µl of MTT solution at 5mg/ml was added and incubated for 4 h. Finally, dimethyl sulfoxide (DMSO) in the volume of 100 µl is added to each well to dissolve the purple formazan formed. The colorimetric assay is measured and recorded at an absorbance of 570 nm using a plate reader (EXL 800, USA). The percentage of the relative cell viability was calculated as (A570 of treated samples/A570 of the untreated sample) X 100. […]
as §5

Candida albicans = assay: microbe, parasite or virus in culture; type: cell-based; conditions: for zone of inhibition at 20 µM: Candida albicans, inhibition zone diameter, six-mm disks soaked with 20 μM of compound, read-out: C. albicans IZD (mm); for C. albicans A% (activity index): zone of test compound / zone of standard (clotrimazole) x 100
Protocol: as §1, §2, §3
The antimicrobial activities of the OSe compounds were evaluated against C. albicans yeast as well as E. coli gram-negative and S. aureus gram-positive bacteria employing the agar well diffusion assay. […]
compound by dissolving in DMSO. […]
Petri dishes, which in turn contain a nutrient media (agar 20 g, peptone 5 g, and beef extract 3 g) seeded with the dedicated strain. Incubation lasted for 24 h at 36
as §4, §5

[1] = inhibition zone diameter, six-mm disks soaked with 20 μM of compound
[2] = MCF7, MTT, 24 h incubation, MCF-7 cells, read-out: MCF7 IC50
[3] = MTT, 24 h incubation, normal WI-38 cells, read-out: WI38 IC50
[4] = MTT, 24 h incubation, HepG2 cells, read-out: HepG2 IC50

Compound | melting point | zone of inhibition at 20 µM (Escherichia coli; [1]) | E. coli A% (activity index) (Escherichia coli) | zone of inhibition at 20 µM (Staphylococcus aureus; [1]) | S. aureus A% (activity index) (Staphylococcus aureus) | IC50 (MCF-7 cells; MCF7, 24 h, read-out: MCF7 IC50 (µM)) | IC50 (WI-38 cells; WI-38, 24 h, read-out: WI38 IC50 (µM)) | IC50 (HepG2 cells; HepG2, 24 h, read-out: HepG2 IC50 (µM)) | zone of inhibition at 20 µM (Escherichia coli) | zone of inhibition at 20 µM (Staphylococcus aureus) | IC50 (MCF-7 cells; [2]) | IC50 (WI-38 cells; [3]) | IC50 (HepG2 cells; [4]) | MCF7 TI (IC50 WI-38 / IC50 MCF-7) (MCF-7 cells; therapeutic index, ratio of WI-38 IC50 to MCF-7 IC50) | zone of inhibition at 20 µM (Candida albicans) | C. albicans A% (activity index) (Candida albicans)
O=C(C[Se]c1ccc(N=Cc2ccccc2O)cc1)Nc1ccccc1 | 150.3 °C |  |  |  |  |  |  |  |  |  |  |  |  |  |  | 
CC1(C)S[C@@H]2[C@H](NC(=O)[C@H](N)c3ccccc3)C(=O)N2[C@H]1C(=O)O [Ampicillin, ampicillin, reference compound] |  | 23 mm | 100% | 21 mm | 100% |  |  |  |  |  |  |  |  |  |  | 
N#CC(C#N)=NNc1ccc([Se]CC(=O)Nc2ccccc2)cc1 [Compound 7] | 177 to 179 °C |  | 13% |  | 29% | > 100 µM | > 100 µM | > 100 µM | 3 mm | 6 mm |  |  |  |  |  | 
CC1=NN(c2ccccc2)C(=O)C1=NNc1ccc([Se]CC(=O)Nc2ccccc2)cc1 [Compound 8, 2-((4-(2-(3-methyl-5-oxo-1-phenyl-1H-pyrazol-4(5H)-ylidene)hydrazinyl)phenyl)selanyl)-N-phenylacetamide] | 197 to 199 °C |  |  | 4 mm | 19% |  |  |  |  |  | > 100 µM | > 100 µM | > 100 µM |  |  | 
O=C(O)C=CC(=O)Nc1ccc([Se]CC(=O)Nc2ccccc2)cc1 [Compound 10, 4-oxo-4-((4-((2-oxo-2-(phenylamino)ethyl)selanyl)phenyl)amino)but-2-enoic acid] |  | 9 mm | 39% | 11 mm | 52% |  |  |  |  |  | 34.8 ± 2.5 µM | 46 ± 2.9 µM | > 100 µM | 1.3 | 8 mm | 33%
O=C(C[Se]c1ccc(N2C(=O)c3ccccc3C2=O)cc1)Nc1ccccc1 [Compound 12, 2-((4-(1,3-dioxoisoindolin-2-yl)phenyl)selanyl)-N-phenylacetamide] | 261 to 262 °C | 6 mm | 26% | 8 mm | 38% |  |  |  |  |  | > 100 µM | > 100 µM | > 100 µM |  | 7 mm | 29%
